Assay results published in PMC3578935, “Biochemical Characterization of CTX-M-15 from Enterobacter cloacae and Designing a Novel Non-β-Lactam-β-Lactamase Inhibitor” (PLoS ONE, 2013).
≈ marks a conversion by molar mass, not a printed value. Like-named read-outs stand apart in the source and are kept apart here.

Tests used:
CTX-M-15 = CTX-M-15 (Escherichia coli, UniProt Q9EXV5); conditions: for K m or K i: K m for good substrates, for poor substrates (ceftazidime, cefepime, aztreonam) determined as K i against 100 µM nitrocefin
Method: The inhibitors used were Clavulanic acid, Sulabctam, Tazobactam and ZINC03787097.
Hydrolysis of β-lactam antibiotics was detected by monitoring the variation in the absorbance due to cleavage of β-lactam ring in 50 mM phosphate buffer, pH 7.0 [28]. All the measurements were taken in triplicate on Shimadzu UV-VIS spectrophotometer (UV-1800). The reaction was performed in a total volume of 500 µl at 30°C. For dilution of the enzyme and to prevent denaturation, BSA was added to a final concentration of 20 µg/ml.

[1] = tested on: E. coli DH5α (Null Plasmid); assay: MIC by micro-dilution, null plasmid control strain; type: cell-based; conditions: Escherichia coli, read-out: MIC DH5α(Null Plasmid)
[2] = tested on: E. coli DH5α transformed with recombinant bla CTX-M-15 (pQE-2-CTX-M-15); assay: MIC by micro-dilution, β-lactams alone or with inhibitors; type: cell-based; conditions: in combinations clavulanic acid, sulbactam, tazobactam at 4 µg/ml, ZINC03787097 at 20 µg/ml; for MIC: Escherichia coli, read-out: MIC DH5α(pQE-2-CTX-M-15), E. coli DH5α with bla CTX-M-15 cloned from E. cloacae EC-15; for MIC DH5α(pQE-2-CTX-M-15): E. coli DH5α with bla CTX-M-15 cloned from E. cloacae EC-15
Method: E. coli DH5α and E. coli BL21 (DE3) were used for cloning and protein expression experiments, respectively. MICs were determined on E. coli DH5α transformed with cloned CTX-M-15 from Enterobacter cloacae clinical strain EC-15.
The MICs for various antibiotics alone or in combination with various inhibitors (clavulanic acid, sulbactam, tazobactam and ZINC03787097) were determined by micro-dilution method and the results were interpreted according to Clinical Laboratory Standards Institute (CLSI) guidelines. Briefly, E. coli DH5α cells transformed with CTX-M-15 was treated with increasing concentrations of the antibiotics ranging from 0.5 to 2000 µg/ml in a series of two fold dilutions. The inhibitors clavulanic acid, sulbactam and tazobactam were used at a fixed concentration of 4 µg/ml, while ZINC03787097 was used at 20 µg/ml.

[3] = in combinations clavulanic acid, sulbactam, tazobactam at 4 µg/ml, ZINC03787097 at 20 µg/ml

Structure (SMILES)	K m or K i (CTX-M-15) [µM]	MIC [1, 3] [µg/mL]	MIC [2] [µg/mL]	MIC [1] [µg/mL]	also measured
CC1(C)S[C@@H]2[C@H](NC(=O)[C@H](N)c3ccccc3)C(=O)N2[C@H]1C(=O)O [Ampicillin]	15 ± 2	2			
C[C@H]1[C@H](NC(=O)/C(=N\OC(C)(C)C(=O)O)c2csc(N)n2)C(=O)N1S(=O)(=O)O [Aztreonam]			16	0.25 (≈ 0.574 µM)	
Cc1nnc(SCC2=C(C(=O)O)N3C(=O)[C@@H](NC(=O)Cn4cnnn4)[C@H]3SC2)s1 [Cefazolin]				2 (≈ 4.4 µM)	
CO/N=C(\C(=O)N[C@@H]1C(=O)N2C(C(=O)[O-])=C(C[N+]3(C)CCCC3)CS[C@H]12)c1csc(N)n1 [Cefepime]			125	0.25 (≈ 0.52 µM)	MIC DH5α(pQE-2-CTX-M-15) ([2]; listed as Cefepime (IV)): 128 µg/ml
CO/N=C(\C(=O)N[C@@H]1C(=O)N2C(C(=O)O)=C(COC(C)=O)CS[C@H]12)c1csc(N)n1 [Cefotaxime]	60 ± 3	0.25	500 to 1000		MIC DH5α(pQE-2-CTX-M-15) ([2]; listed as Cefotaxime (III)): 512 µg/ml
CO[C@@]1(NC(=O)Cc2cccs2)C(=O)N2C(C(=O)O)=C(COC(N)=O)CS[C@@H]21 [Cefoxitin]		2	16		
CC(C)(O/N=C(\C(=O)N[C@@H]1C(=O)N2C(C(=O)[O-])=C(C[n+]3ccccc3)CS[C@H]12)c1csc(N)n1)C(=O)O [Ceftazidime]	1209	0.25	4		k cat (CTX-M-15; 50 mM phosphate buffer pH 7.0, 30°C): 1.51 s⁻¹; K m or K i (CTX-M-15; listed as Ceftazidime (III)): 1209 ± 91 µM
CO/N=C(\C(=O)N[C@@H]1C(=O)N2C(C(=O)O)=C(CSc3nc(=O)c(=O)[nH]n3C)CS[C@H]12)c1csc(N)n1 [Ceftriaxone]	33 ± 2	0.06			
